Reference: patent US9701690B2, “Myrtocomuloacetalone 1 as an anti-inflammatory agent” (priority 2014, dated 2017)
Values after ≈ are worked out from the molar mass of the structure shown. Like-named read-outs stand apart in the source and are kept apart here.

What was measured:
[1] = test system: T-cells; experiment: T-cell proliferation; assay type: cell-based
Description: T Lymphocytes, the major key detector cells of the adaptive immune responses, differ entirely from those of innate immunity that includes free a radical generation system. However, the effector pathways overlap to a great extent. Therefore, they can play a leading role in the development of autoimmune disease related to oxidative stress.

[2] = test system: MDBK kidney cells; experiment: MTT assay, MDBK kidney cell proliferation; assay type: cell-based; conditions: 48 hours
Method: FIG. 5 depicts the effect of myrtocomuloacetalone 1 on MDBK kidney cell proliferation by MTT assay. MDBK Kidney cell line was incubated in the presence of three concentrations 25, 5 and 0.5 μg/mL of test compounds or without addition of compounds (− test control) and in presence of cytotoxic drug cyclohexamide (+ control).
(§1) The effect of myrtocomuloacetalone 1 on cell viability was determined in MDBK, CC1, J774 and 3T3 Fibrobast cells and the IC50 for each line was calculated.

[3] = test system: CC1 liver cells; experiment: MTT assay, CC1 liver cell proliferation; assay type: cell-based, Wistar rat; conditions: 48 hours
Method: FIG. 6 depicts the effect of myrtocomuloacetalone 1 on Wistar rat CC1 liver cell proliferation by MTT assay. CC1 liver cellline was incubated in the presence of three concentrations 25, 5 and 0.5 μg/mL of test compounds or without addition of compounds (−ve control) and in the presence of cytotoxic drug cyclohexamide (+ control).
as §1

[4] = test system: 3T3 mouse fibroblast cells; experiment: MTT assay, 3T3 fibroblast cell proliferation; assay type: cell-based; conditions: 48 hours
Method: FIG. 7 depicts the effect of myrtocomuloacetalone 1 on 3T3 mouse fibrobast cell proliferation by MTT assay. Fibrobast cell line was incubated in the presence of three concentrations (25, 5 and 0.5 μg/mL) of test compounds or without addition of compounds (−ye control) and in presence of cytotoxic drug cyclohexamide (+ control).
as §1

[5] = test system: ROS (HOCl); experiment: Oxidative burst, ROS (HOCl) production (zymosan induced); assay type: cell-based
[6] = test system: superoxide (O−2); experiment: Oxidative burst, superoxide production; assay type: cell-based; conditions: for Oxidative burst % Inhibition O−2: 25 μg/Ml
[7] = test system: J774.2 macrophages; experiment: MTT assay, J774.2 macrophage cell proliferation; assay type: cell-based, mouse; conditions: 48 hours
Method: FIG. 8 depicts the effect of myrtocomuloacetalone 1 on J774.2 mouse macrophage cell proliferation by MIT assay. Macrophage cell line was incubated in the presence of three concentrations (25, 5 and 0.5 μg/mL) of test compounds or without addition of compounds (−ve control).
as §1

[8] = test system: intracellular ROS in J774.2 cells; experiment: Intracellular oxidative stress, DCFH dye, fluorescent microscopy; assay type: cell-based, mouse; conditions: PMA stimulant
Description: FIG. 4 depicts the intracellular oxidative stress examined by fluorescent microscopy. Mouse macrophage J774.2 cells, treated with phorbol myristate acetate (PMA) alone: positive control or in combination with compound. The cells were examined at 20× magnification under a green channel. Bright field images showing the total number of cells present in the same field were obtained under phase contrast at 20× magnification. Each image is representative of 3 individual experiments.
In order to validate the above mentioned results, we also investigated the effect of compound on intracellular ROS levels by using 2′,7′-dichlorfluorescein (DCFH) dye, which mainly measures the H2O2 released into the intracellular environment. We employed PMA as a stimulant since PMA is known to activate the NADPH oxidase via protein kinase C pathway.

[9] = test system: H2O2; experiment: Oxidative burst, hydrogen peroxide production; assay type: cell-based
[10] = test system: basal Nitric Oxide, U138MG cells; experiment: Basal level of Nitric Oxide in neuronal cells (griess reagent); assay type: cell-based; conditions: 48 hours
Method: FIG. 1 depicts the effect of myrtocomuloacetalone 1 on basal level of Nitric Oxide neuronal cells. U138MG cells were incubated in presence and absence of compound for 48 hours and supernatant was analyzed for the level of the presence of nitrite by griess reagent.
Under normal physiological conditions, Nitric Oxide is necessary for normal vascular function because of its effect as a neurotransmitter. This kind of Nitric Oxide is called a basal level of Nitric Oxide, which is released by neuronal and endothelial synthases (Hattori, Kasai, and Gross 2004). The test compound […] in the basal level of Nitric Oxide released by the neuronal cell (FIG. 1).

[11] = test system: Nitric Oxide release by J774.2 macrophages; experiment: LPS-induced inflammatory Nitric Oxide release by macrophages (griess reagent); assay type: cell-based, mouse; conditions: J774.2, LPS, 48 hours
Method: FIG. 2 depicts the effect of myrtocomuloacetalone 1 on inflammatory Nitric Oxide release by macrophages in response to LPS, macrophages. J774.2 cells were incubated in the presence or absence of compound for 48 hours and supernatant was detected for the presence of nitrite by griess reagent. The result was compared with known inhibitor of Nitric Oxide; LNMA (NG Monomethyl L arginine).
During inflammation, the inducible form of nitric oxide synthase gets activated and causes the robust generation of Nitric Oxide that causes excessive vasodilation which results in hypotension and septic shock. In contrast, Nitric Oxide combined with superoxide (ROS generated during phagocytosis) leads to ONOO generation and eventually reduces the bioavailability of basal Nitric Oxide and therefore normal function of neurotransition will be halted. This effect mainly leads to vasoconstriction, hypertension and atherosclerosis. Current studies reveal that the compound is an inhibitor to the inflammatory Nitric Oxide released by the activated macrophages in cell culture supernatant. It is found to be a highly significant inhibitor Nitric Oxide with an IC50 value of <1 μg/mL (see FIG. 2).

[12] = test system: p38; experiment: LPS activated transcription factor p38; assay type: cell-based
[13] = test system: NF kappa B p65 in J774 cells; experiment: LPS induced nuclear translocation of p65 subunit of NF kappa B; assay type: cell-based, mouse
Method: FIG. 3 depicts the LPS induced nuclear translocation of p65 subunit of NF kappa B in J774 cells. Effect of myrtocomuloacetalone 1 at concentration 25 μg/mL. Arrows show no transcription factor inside nucleus at 25 μg/mL, whereas 5, 0.5 μg/mL has no effect on nuclear factor translocation as compared to positive control. The cells were examined at 20× magnification under TRITC and DAPI channel using a Nikon TE-2000 epifluorescence microscope. Merging was done using Adobe Photoshop.

Molecule: C[C@]12C=CC(=O)C=C1CC[C@@H]1[C@@H]2[C@@H](O)C[C@@]2(C)[C@H]1CC[C@]2(O)C(=O)CO [Prednisolone, reference compound]
- IC50 ([1]; T-cell): < 0.625 µg/mL

Molecule: C[C@@H]1C[C@@H]([C@H](O)CC2CC(=O)NC(=O)C2)C(=O)[C@@H](C)C1 [cycoxehamide, reference compound]
- Cell viability IC50, MDBK kidney cells [2]: 1.2 ± 0.4 µg/mL
- Cell viability IC50, CC1 liver cells [3]: 0.02 ± 0.001 µg/mL
- Cell viability IC50, 3T3 mouse fibroblasts [4]: 0.13 µg/mL

Molecule: CC(C)Cc1ccc(C(C)C(=O)O)cc1 (stereo not shown) [Ibuprofen, reference compound]
- IC50 ([5]; oxidative burst): 11.7 ± 1.8 µg/mL (≈ 56.7 µM)

Molecule: c1ccc([I+]c2ccccc2)cc1 [Diphenyliodonium, reference compound]
- Oxidative burst % Inhibition O−2 [6]: 95%

Molecule: myrtocomuloacetalone 1 [Myrtocomuloacetalone (1)]
- Cell viability IC50, J774.2 macrophages [7]: 5 ± 0.8 µg/mL
- Cell viability IC50, MDBK kidney cells [2]: 4.5 ± 1.1 µg/mL
- Cell viability IC50, CC1 liver cells [3]: 4.6 ± 0.7 µg/mL
- PMA induced intracellular ROS generation [8]: inhibitory effects
- Cell viability IC50, 3T3 mouse fibroblasts [4]: 6.53 ± 1.2 µg/mL
- Oxidative burst % Inhibition H2O2 ([9]; 25 μg/Ml): 53%
- Effect on hydrogen peroxide production ([9]; oxidative burst): profound effect
- Oxidative burst % Inhibition O−2 [6]: 42.5%
- Effect on superoxide production ([6]; oxidative burst): profound effect
- Effect on basal level of Nitric Oxide released by neuronal cell [10]: does change
- T-Cell proliferation (IC50) [1]: <0.5 µg/mL
- T-Cell proliferation (IC50) ([1]; listed as myrtocomuloacetalone 1): < 0.5 µg/mL
- Inhibition of inflammatory Nitric Oxide released by activated macrophages, IC50 [11]: < 1 µg/mL
- Effect on transcription factor p38 activated by LPS [12]: remain unaffected
- Nuclear translocation of NF κB ([13]; 25 μg/mL): completely inhibits
- Nuclear translocation of NF κB ([13]; 5, 0.5 μg/mL): no effect
- Effect on HOCl production ([5]; oxidative burst): no effect
- ROS (HOCl) (IC50) ([5]; oxidative burst): >100 µg/mL
- Zymosan induced ROS production of mainly HOCl ([5]; zymosan induced): not
